Results: US20100010219A1, “METHOD FOR PRODUCING PYRROLIDINE COMPOUND” (JAPAN TOBACCO INC., priority 2006, published 2010)
Where a name gives a salt, the structure may show the parent alone.

Target: T1, human HSD-1 (recombinant HSD-1) (Homo sapiens, UniProt P28845)
T1 construct: made in house
Assay: HSD-1 activity inhibitory action in vitro (SPA, conversion of cortisone to cortisol)
Format: biochemical
Conditions: recombinant human HSD-1 expressed using baculovirus system; 10 nM 3H cortisone, 500 μM NADPH; room temperature 90 to 120 min; read-out: hHSD1 (IC50 (nM))

T1 sequence (P28845 whole entry): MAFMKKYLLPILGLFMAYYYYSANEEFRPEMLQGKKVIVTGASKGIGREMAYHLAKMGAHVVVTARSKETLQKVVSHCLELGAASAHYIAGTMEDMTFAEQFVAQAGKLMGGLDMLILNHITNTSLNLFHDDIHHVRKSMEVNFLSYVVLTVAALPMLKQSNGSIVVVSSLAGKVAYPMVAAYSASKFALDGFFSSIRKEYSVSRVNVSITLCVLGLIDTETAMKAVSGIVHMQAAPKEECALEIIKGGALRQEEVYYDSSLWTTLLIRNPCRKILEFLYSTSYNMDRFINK

| SMILES | IC50 [nM] |
| --- | --- |
| CS(=O)(=O)NC(=O)N1CCC(n2ncc(C(=O)N3CC[C@@H](c4ccccc4C(F)(F)F)C3)c2C2CC2)CC1 [Example 56, 1-[5-cyclopropyl-1-(1-methanesulfonylaminocarbonylpiperidin-4-yl)-1H-pyrazole-4-carbonyl]-[(S)-3-(2-trifluoromethylphenyl)]pyrrolidine] | < 30 |
| O=C(O)c1cccc(N2CCC(n3ncc(C(=O)N4CCC(c5ccccc5C(F)(F)F)C4)c3C3CC3)CC2)c1 (stereo not shown) [Example 114, 3-(4-{5-cyclopropyl-4-[3-(2-trifluoromethylphenyl)pyrrolidine-1-carbonyl]pyrazol-1-yl}piperidin-1-yl)benzoic acid] | < 30 |
| NC(=O)N[C@H]1CC[C@H](n2ncc(C(=O)N3CC[C@@H](c4ccccc4C(F)(F)F)C3)c2C2CC2)CC1 [Example 131, 1-[5-cyclopropyl-1-(trans-4-ureidocyclohexyl)-1H-pyrazole-4-carbonyl]-[(S)-3-(2-trifluoromethylphenyl)]pyrrolidine] | < 30 |
| CC(=O)NCC(=O)N1CCC(n2ncc(C(=O)N3CC[C@@H](c4ccccc4C(F)(F)F)C3)c2C2CC2)CC1 [Example 68, 1-{1-[1-(2-acetylaminoacetyl)piperidin-4-yl]-5-cyclopropyl-1H-pyrazole-4-carbonyl}-[(S)-3-(2-trifluoromethylphenyl)]pyrrolidine] | < 30 |
| CC1(NC(=O)N2CCC(n3ncc(C(=O)N4CC[C@@H](c5ccccc5C(F)(F)F)C4)c3C3CC3)CC2)CC1 [Example 126, 1-{5-cyclopropyl-1-[1-(1-methylcyclopropylcarbamoyl)piperidin-4-yl]-1H-pyrazole-4-carbonyl}-[(S)-3-(2-trifluoromethylphenyl)]pyrrolidine] | < 30 |
| O=C(c1cnn(C2CCN(c3cnccn3)CC2)c1C1CC1)N1CC[C@@H](c2ccccc2C(F)(F)F)C1 [Example 129, 1-[5-cyclopropyl-1-(1-pyrazin-2-ylpiperidin-4-yl)-1H-pyrazole-4-carbonyl]-[(S)-3-(2-trifluoromethylphenyl)]pyrrolidine hydrochloride] | < 30 |
| CN(C)CC(=O)N1CCC(n2ncc(C(=O)N3CC[C@@H](c4ccccc4C(F)(F)F)C3)c2C2CC2)CC1 [Example 67, 1-{5-cyclopropyl-1-[1-(2-dimethylaminoacetyl)piperidin-4-yl]-1H-pyrazole-4-carbonyl}-[(S)-3-(2-trifluoromethylphenyl)]pyrrolidine hydrochloride] | < 30 |
| CC(C)NC(=O)N1CCC(n2ncc(C(=O)N3CC[C@@H](c4ccccc4C(F)(F)F)C3)c2C2CC2)CC1 [Example 125, 1-{5-cyclopropyl-1-[1-(1-isopropylcarbamoyl)piperidin-4-yl]-1H-pyrazole-4-carbonyl}-[(S)-3-(2-trifluoromethylphenyl)]pyrrolidine] | < 30 |
| NC(=O)C1CCN(C(=O)N2CCC(n3ncc(C(=O)N4CC[C@@H](c5ccccc5C(F)(F)F)C4)c3C3CC3)CC2)CC1 [Example 33, 1-{1-[1-(4-carbamoylpiperidine-1-carbonyl)piperidin-4-yl]-5-cyclopropyl-1H-pyrazole-4-carbonyl}-[(S)-3-(2-trifluoromethylphenyl)]pyrrolidine] | < 30 |
| O=C(NCc1ccc(F)cc1)N1CCC(n2ncc(C(=O)N3CCC(c4ccccc4C(F)(F)F)C3)c2C2CC2)CC1 (stereo not shown) [Example 147, 1-{5-cyclopropyl-1-[1-(4-fluorobenzylcarbamoyl)piperidin-4-yl]-1H-pyrazole-4-carbonyl}-3-(2-trifluoromethylphenyl)pyrrolidine] | < 30 |
| CC1(C(=O)N2CCC(n3ncc(C(=O)N4CC[C@@H](c5ccccc5C(F)(F)F)C4)c3C3CC3)CC2)CC1 [Example 69, 1-{5-cyclopropyl-1-[1-(1-methylcyclopropanecarbonyl)piperidin-4-yl]-1H-pyrazole-4-carbonyl}-[(S)-3-(2-trifluoromethylphenyl)]pyrrolidine] | < 30 |
| O=C(NCCN1CCCCC1)N1CCC(n2ncc(C(=O)N3CC[C@@H](c4ccccc4C(F)(F)F)C3)c2C2CC2)CC1 [Example 17, 1-{5-cyclopropyl-1-[1-(2-piperidin-1-yl-ethylcarbamoyl)piperidin-4-yl]-1H-pyrazole-4-carbonyl}-[(S)-3-(2-trifluoromethylphenyl)]pyrrolidine hydrochloride] | < 30 |
| O=C(N[C@H](CO)c1ccccc1)N1CCC(n2ncc(C(=O)N3CC[C@@H](c4ccccc4C(F)(F)F)C3)c2C2CC2)CC1 [Example 51, 1-(5-cyclopropyl-1-{1-[(S)-2-hydroxy-1-phenylethylcarbamoyl]piperidin-4-yl}-1H-pyrazole-4-carbonyl)-[(S)-3-(2-trifluoromethylphenyl)]pyrrolidine] | < 30 |
| O=C(Nc1ccccc1F)N1CCC(n2ncc(C(=O)N3CCC(c4cccnc4Cl)C3)c2C2CC2)CC1 (stereo not shown) [Example 137, 3-(2-chloropyridin-3-yl)-1-{5-cyclopropyl-1-[1-(2-fluorophenylcarbamoyl)piperidin-4-yl]-1H-pyrazole-4-carbonyl}pyrrolidine] | < 30 |
| O=C(c1cnn(C2CCN(CC3(C(=O)NCCO)CC3)CC2)c1C1CC1)N1CC[C@@H](c2ccccc2C(F)(F)F)C1 [Example 107, 1-(5-cyclopropyl-1-{1-[1-(2-hydroxyethylcarbamoyl)cyclopropylmethyl]piperidin-4-yl}-1H-pyrazole-4-carbonyl)-[(S)-3-(2-trifluoromethylphenyl)]pyrrolidine hydrochloride] | < 30 |
| CONC(=O)Nc1ccc(N2CCC(n3ncc(C(=O)N4CCC(c5ccccc5C(F)(F)F)C4)c3C3CC3)CC2)cc1 (stereo not shown) [Example 170, 1-(5-cyclopropyl-1-{1-[4-(3-methoxyureido)phenyl]piperidin-4-yl}-1H-pyrazole-4-carbonyl)-3-(2-trifluoromethylphenyl)pyrrolidine] | < 30 |
| CC(C)ONC(=O)N1CCC(n2ncc(C(=O)N3CCC(c4ccccc4C(F)(F)F)C3)c2C2(C)CC2)CC1 (stereo not shown) [Example 146, 1-{1-[1-(isopropoxycarbamoyl)piperidin-4-yl]-5-(1-methylcyclopropyl)-1H-pyrazole-4-carbonyl}-3-(2-trifluoromethylphenyl)pyrrolidine] | < 30 |
| O=C(c1cnn([C@H]2CC[C@H](c3nnn[nH]3)CC2)c1C1CC1)N1CC[C@@H](c2ccccc2C(F)(F)F)C1 [Example 132, 1-{5-cyclopropyl-1-[trans-4-(1H-tetrazol-5-yl)cyclohexyl]-1H-pyrazole-4-carbonyl}-[(S)-3-(2-trifluoromethylphenyl)]pyrrolidine] | < 30 |
| O=C(CCCO)N1CCC(n2ncc(C(=O)N3CC[C@@H](c4ccccc4C(F)(F)F)C3)c2C2CC2)CC1 [Example 80, 1-{5-cyclopropyl-1-[1-(4-hydroxybutyryl)piperidin-4-yl]-1H-pyrazole-4-carbonyl}-[(S)-3-(2-trifluoromethylphenyl)]pyrrolidine] | < 30 |
| O=C(c1cnn(C2CCN(c3ncccc3Cl)CC2)c1C1CC1)N1CCC(c2cccnc2)C1 (stereo not shown) [Example 187, 1-{1-[1-(3-chloropyridin-2-yl)piperidin-4-yl]-5-cyclopropyl-1H-pyrazole-4-carbonyl}-3-(pyridin-3-yl)pyrrolidine] | < 30 |
| O=C(c1cnn(C2CCN(C(=O)C3CC3)CC2)c1C1CC1)N1CC[C@@H](c2ccccc2C(F)(F)F)C1 [Example 64, 1-[1-(1-cyclopropanecarbonylpiperidin-4-yl)-5-cyclopropyl-1H-pyrazole-4-carbonyl]-[(S)-3-(2-trifluoromethylphenyl)]pyrrolidine] | < 30 |
| CC(=O)N1CCC[C@H]1C(=O)N1CCC(n2ncc(C(=O)N3CC[C@@H](c4ccccc4C(F)(F)F)C3)c2C2CC2)CC1 [Example 89, 1-(1-{1-[(S)-1-acetylpyrrolidine-2-carbonyl]piperidin-4-yl}-5-cyclopropyl-1H-pyrazole-4-carbonyl)-[(S)-3-(2-trifluoromethylphenyl)]pyrrolidine] | < 30 |
| CC(C(N)=O)N1CCC(n2ncc(C(=O)N3CC[C@@H](c4ccccc4C(F)(F)F)C3)c2C2CC2)CC1 (stereo partly drawn) [Example 103, 1-{1-[1-(1-carbamoylethyl)piperidin-4-yl]-5-cyclopropyl-1H-pyrazole-4-carbonyl}-[(S)-3-(2-trifluoromethylphenyl)]pyrrolidine hydrochloride] | < 30 |
| O=C(c1cnn(C2CCN(C(=O)N3CCC(F)(F)CC3)CC2)c1C1CC1)N1CC[C@@H](c2ccccc2C(F)(F)F)C1 [Example 18, 1-{5-cyclopropyl-1-[1-(4,4-difluoropiperidine-1-carbonyl)piperidin-4-yl]-1H-pyrazole-4-carbonyl}-[(S)-3-(2-trifluoromethylphenyl)]pyrrolidine] | < 30 |
| O=C(c1cnn(C2CCN(C(=O)N3CCC[C@@H](O)C3)CC2)c1C1CC1)N1CC[C@@H](c2ccccc2C(F)(F)F)C1 [Example 32, 1-(5-cyclopropyl-1-{1-[(R)-3-hydroxypiperidine-1-carbonyl]piperidin-4-yl}-1H-pyrazole-4-carbonyl)-[(S)-3-(2-trifluoromethylphenyl)]pyrrolidine] | < 30 |
| CC(C)(CO)NC(=O)N1CCC(n2ncc(C(=O)N3CC[C@@H](c4ccccc4C(F)(F)F)C3)c2C2CC2)CC1 [Example 9, 1-{5-cyclopropyl-1-[1-(2-hydroxy-1,1-dimethylethylcarbamoyl)piperidin-4-yl]-1H-pyrazole-4-carbonyl}-[(S)-3-(2-trifluoromethylphenyl)]pyrrolidine] | < 30 |
| O=C(c1cnn(C2CCN(C(=O)C3(CO)CC3)CC2)c1C1CC1)N1CC[C@@H](c2ccccc2C(F)(F)F)C1 [Example 78, 1-{5-cyclopropyl-1-[1-(1-hydroxymethylcyclopropanecarbonyl)piperidin-4-yl]-1H-pyrazole-4-carbonyl}-[(S)-3-(2-trifluoromethylphenyl)]pyrrolidine] | < 30 |
| O=C(Nc1ccccc1F)N1CCC(n2ncc(C(=O)N3CCC(c4cccnc4)C3)c2C2CCCCC2)CC1 (stereo not shown) [Example 139, 1-{5-cyclohexyl-1-[1-(2-fluorophenylcarbamoyl)piperidin-4-yl]-1H-pyrazole-4-carbonyl}-3-(pyridin-3-yl)pyrrolidine] | < 30 |
